These are literature values, as cited in patent US20100049492A1, “METHOD AND APPARATUS FOR MODELING SKIN SENSITIZATION” (Entelos, Inc., priority 2006, published 2010).

Each structure is given as a SMILES string.

In this data set the test system is lymph node (LN) proliferation. The following applies: categories based on data available in the public domain.
Regarding `Nc1ccc(C(=O)O)cc1` [PABA], the “chemical category (skin sensitizer strength)” value (“chemical category” for short) is “non-sensitizers”.
On to `CCCCCCCC/C=C\CCCCCCCC(=O)OCCOCC(OCCO)C1OCC(OCCO)C1OCCO` (stereo not drawn) [Tween 80], for which the “chemical category” value is “non-sensitizers”.
Turning to `O=C/C=C/c1ccccc1` [cinnamic aldehyde], the “chemical category” value is listed as “moderate sensitizers”.
Consider `Oc1ccc(O)cc1` [hydroquinone], for which the “chemical category” value is on record as “strong sensitizers”.
In the case of `CC=Cc1ccc(O)c(OC)c1` [isoeugenol], the “chemical category” value is “moderate sensitizers”.
`CCO/C=C1\N=C(c2ccccc2)OC1=O` [oxazalone]: the “chemical category” value is reported as “strong sensitizers”.
